Laboratory results reported in the supplement of paper PMC11208160.

Test: recombinant UMI read abundance after kanamycin selection (control-corrected) (log10(CPM+1)); higher = more efficient recombination; extreme values may be limits of the assay; sequences stand for … in AGTGCAGAGAAAATCGGCCAGTTTTCTCTGCCTGCAGTCCGCATGCCGTGGGACCCCTTGGGTTCTAACCTGTTGCCTAGATTTATGCAGCGGACTGCCTTTCTCCCAAAGTGATAAACCGG…AGGTTGGTTTCACT; site = the 11-nt donor
Summary of the method: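 Counts of recombinant UMIs were reported as log10(CPM+1). Before that, they were converted to CPM, averaged over replicates and scaled using control-derived factors. They came from PCR across the donor–target junction after Escherichia coli carrying the pair library and target plasmid was plated on IPTG (0.07 mM) plus kanamycin, or unselected, in two replicates each.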
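Further: IS621 bridge recombinase in Escherichia coli cells against a fixed T5 target plasmid.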

Row | Sequence | recombinant UMI read abundance (log10)
1 | TCATACTCATGGACCGGTTTTCCCGGTAATCCGTATTTGCA (site TCATACTCTTA) | 0
2 | TCATACTCATGGACCGGTTTTCCCGGTAATCCGTATTTGCA (site TCATACTCTTC) | 0.0158
3 | TCATACTCATGGACCGGTTTTCCCGGTAATCCGTATTTGCA (site TCATACTCTTG) | 2.69
4 | TCATACTCATGGACCGGTTTTCCCGGTAATCCGTATTTGCA (site TCATACTCTTT) | 0.0879
5 | TCATACTCATGGACCGGTTTTCCCGGTAATCCGTATTTGCA (site TCATAGTCTTG) | 1.54
6 | TCATACTCATGGACCGGTTTTCCCGGTAATCCGTATTTGCA (site TCATATTCTTG) | 0
7 | TCATACTCATGGACCGGTTTTCCCGGTAATCCGTATTTGCA (site TCATCCTCTTG) | 0.111
8 | TCATACTCATGGACCGGTTTTCCCGGTAATCCGTATTTGCA (site TCATGCTCTTG) | 0
9 | TCATACTCATGGACCGGTTTTCCCGGTAATCCGTATTTGCA (site TCATTCTCTTG) | 0
10 | TCATACTCATGGACCGGTTTTCCCGGTAATCCGTATTTGCA (site TCCTACTCTTG) | 1.79
11 | TCATACTCATGGACCGGTTTTCCCGGTAATCCGTATTTGCA (site TCGTACTCTTG) | 2.35
12 | TCATACTCATGGACCGGTTTTCCCGGTAATCCGTATTTGCA (site TCTTACTCTTG) | 2.13
13 | TCATACTCATGGACCGGTTTTCCCGGTAATCCGTATTTGCA (site TGATACTCTTG) | 1.78
14 | TCATACTCATGGACCGGTTTTCCCGGTAATCCGTATTTGCA (site TTATACTCTTG) | 1.2
15 | TCATACTCATGGACCGGTTTTCCCGGTAATCCGTATTTGCC (site TCATACTCTAG) | 1.07
16 | TCATACTCATGGACCGGTTTTCCCGGTAATCCGTATTTGCC (site TCATACTCTCG) | 0
17 | TCATACTCATGGACCGGTTTTCCCGGTAATCCGTATTTGCC (site TCATACTCTGG) | 2.23
18 | TCATACTCATGGACCGGTTTTCCCGGTAATCCGTATTTGCC (site TCATACTCTTG) | 0
19 | TCATACTCATGGACCGGTTTTCCCGGTAATCCGTATTTGCT (site TCATACTCTAG) | 2.47

Row | Sequence | recombinant UMI read abundance (log10)
20 | TCATACTCATGGACCGGTTTTCCCGGTAATCCGTATTTGCT (site TCATACTCTCG) | 0
21 | TCATACTCATGGACCGGTTTTCCCGGTAATCCGTATTTGCT (site TCATACTCTGG) | 0
22 | TCATACTCATGGACCGGTTTTCCCGGTAATCCGTATTTGCT (site TCATACTCTTG) | 0
23 | TCATATACATGGACCGGTTTTCCCGGTAATCCGTATTTGCA (site TCATATACTTG) | 0.743
24 | TCATATACATGGACCGGTTTTCCCGGTAATCCGTATTTGGA (site TCATATACTTC) | 0.727
25 | TCATCGGCATGGACCGGTTTTCCCGGTAATCCGTATTTGAG (site TCATCGGCTCT) | 0.699
26 | TCATCTACATGGACCGGTTTTCCCGGTAATCCGTATTTGTG (site ACATCTACTCA) | 0.0432
27 | TCATCTACATGGACCGGTTTTCCCGGTAATCCGTATTTGTG (site CCATCTACTCA) | 0.00835
28 | TCATCTACATGGACCGGTTTTCCCGGTAATCCGTATTTGTG (site GCATCTACTCA) | 0.0109
29 | TCATCTACATGGACCGGTTTTCCCGGTAATCCGTATTTGTG (site TCATCTACTCA) | 0.00873
30 | TCATGGTCATGGACCGGTTTTCCCGGTAATCCGTATTTGTT (site TCATGGTCTAA) | 0.48
31 | TCCAAAGCATGGACCGGTTTTCCCGGTAATCCGTATTTGAC (site GTACCGCCTAG) | 0
32 | TCCAACTCATGGACCGGTTTTCCCGGTAATCCGTATTTGCC (site TCCAAATCTGG) | 0
33 | TCCAACTCATGGACCGGTTTTCCCGGTAATCCGTATTTGCC (site TCCAACTCTGG) | 0
34 | TCCAACTCATGGACCGGTTTTCCCGGTAATCCGTATTTGCC (site TCCAAGTCTGG) | 0
35 | TCCAACTCATGGACCGGTTTTCCCGGTAATCCGTATTTGCC (site TCCAATTCTGG) | 0
36 | TCCAATTCATGGACCGGTTTTCCCGGTAATCCGTATTTGCC (site ACCAATTCTGG) | 0
37 | TCCAATTCATGGACCGGTTTTCCCGGTAATCCGTATTTGCC (site CCCAATTCTGG) | 0
38 | TCCAATTCATGGACCGGTTTTCCCGGTAATCCGTATTTGCC (site GCCAATTCTGG) | 0

Row | Sequence | recombinant UMI read abundance (log10)
39 | TCCAATTCATGGACCGGTTTTCCCGGTAATCCGTATTTGCC (site TACAATTCTGG) | 0
40 | TCCAATTCATGGACCGGTTTTCCCGGTAATCCGTATTTGCC (site TCAAATTCTGG) | 0
41 | TCCAATTCATGGACCGGTTTTCCCGGTAATCCGTATTTGCC (site TCCAAATCTGG) | 0
42 | TCCAATTCATGGACCGGTTTTCCCGGTAATCCGTATTTGCC (site TCCAACTCTGG) | 0
43 | TCCAATTCATGGACCGGTTTTCCCGGTAATCCGTATTTGCC (site TCCAAGTCTGG) | 0
44 | TCCAATTCATGGACCGGTTTTCCCGGTAATCCGTATTTGCC (site TCCAATACTGG) | 0
45 | TCCAATTCATGGACCGGTTTTCCCGGTAATCCGTATTTGCC (site TCCAATCCTGG) | 0
46 | TCCAATTCATGGACCGGTTTTCCCGGTAATCCGTATTTGCC (site TCCAATGCTGG) | 0
47 | TCCAATTCATGGACCGGTTTTCCCGGTAATCCGTATTTGCC (site TCCAATTCTAG) | 0
48 | TCCAATTCATGGACCGGTTTTCCCGGTAATCCGTATTTGCC (site TCCAATTCTCG) | 0
49 | TCCAATTCATGGACCGGTTTTCCCGGTAATCCGTATTTGCC (site TCCAATTCTGC) | 0
50 | TCCAATTCATGGACCGGTTTTCCCGGTAATCCGTATTTGCC (site TCCAATTCTGG) | 0
51 | TCCAATTCATGGACCGGTTTTCCCGGTAATCCGTATTTGCC (site TCCAATTCTGT) | 0
52 | TCCAATTCATGGACCGGTTTTCCCGGTAATCCGTATTTGCC (site TCCAATTCTTG) | 0
53 | TCCAATTCATGGACCGGTTTTCCCGGTAATCCGTATTTGCC (site TCCACTTCTGG) | 0
54 | TCCAATTCATGGACCGGTTTTCCCGGTAATCCGTATTTGCC (site TCCAGTTCTGG) | 0
55 | TCCAATTCATGGACCGGTTTTCCCGGTAATCCGTATTTGCC (site TCCATTTCTGG) | 0
56 | TCCAATTCATGGACCGGTTTTCCCGGTAATCCGTATTTGCC (site TCCCATTCTGG) | 0
57 | TCCAATTCATGGACCGGTTTTCCCGGTAATCCGTATTTGCC (site TCCGATTCTGG) | 0
